Data set [1] in a line: Cytotoxicity in HepG2 cells, Resazurin assay. The settings on record: human, HepG2 cells, TOX-HepG2-4 d CC50 (μM), HepG2 cells incubated for 4 days, viability by Resazurin assay. On the technique in general: The colour change of resazurin is a common sign of viable cells or microbes.
The test system of a further data set is HBV. Description: anti HBV activity, HepG2.117 cell line, intracellular HBV DNA by realtime PCR. In kind it is cell-based. The method, boiled down: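 Readout was intracellular HBV DNA by real-time PCR (HBV-specific primers and probe) after 3 days of compound exposure. Serial dilutions were tested in duplicate on HepG2.117 cells, a stable inducible HBV producer in which replication is switched on when doxycycline is absent.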

The mark [2] stands for this setting: Hepatitis B virus, HepG2.117, 72 h, HepG2.117 cell line (Tet-off), 3 days of treatment, intracellular HBV DNA quantified by realtime PCR, read-out: HBV-AVE-HepG2.117 EC50.

Molecules are shown by their SMILES. Like-named read-outs stand apart in the source and are kept apart here. Where only a bound is given, the exact number is not on record here.

26 compounds from patent US10875876B2, “Cyclized sulfamoylarylamide derivatives and the use thereof as medicaments for the treatment of hepatitis B” (priority 2015, dated 2020) can be followed below.

By CC50 is commonly meant the concentration that lowers cell viability or growth by half. Read a low CC50 as harm at low concentration. For orientation: EC50 means the midpoint of the concentration-response curve.

As for `C[C@H]1CCc2c(cn(C)c2C(=O)Nc2ccnc(C(F)F)c2)S(=O)(=O)N1` [Compound 165, (3S)—N-[2-(difluoromethyl)-4-pyridyl]-3,7-dimethyl-1,1-dioxo-2,3,4,5-tetrahydropyrrolo[3,4-f]thiazepine-6-carboxamide], the CC50 at 4 days in data set [1] is greater than 25 µM. For the same compound, the EC50 in the data set on HBV (setting [2]) was found to be 0.068 µM.
`C[C@H](O)[C@H]1COc2c(cn(C)c2C(=O)Nc2ccc(F)c(C(F)F)c2)S(=O)(=O)N1` [Compound 64, (3R)—N-[3-(difluoromethyl)-4-fluoro-phenyl]-3-[(1S)-1-hydroxyethyl]-7-methyl-1,1-dioxo-3,4-dihydro-2H-pyrrolo[3,4-b][1,4,5]oxathiazepine-6-carb oxamide] yielded a CC50 at 4 days in data set [1] greater than 25 µM. Also, in the data set on HBV (setting [2]), the EC50 came out at 0.008 µM.
Compound `Cn1cc2c(c1C(=O)Nc1ccnc(C(F)F)c1)C=CC(C(F)F)NS2(=O)=O` (stereo not shown) [compound 247] had a cytotoxic concentration (CC50) at 4 days in data set [1] greater than 25 µM. Also, in the data set on HBV (setting [2]), the EC50 is greater than 0.13 µM.
Take `Cn1cc(C2COc3c(cn(C)c3C(=O)Nc3ccc(F)c(F)c3)S(=O)(=O)N2)cn1` (stereo not shown) [Compound 43, N-(3,4-difluorophenyl)-7-methyl-3-(1-methylpyrazol-4-yl)-1,1-dioxo-3,4-dihydro-2H-pyrrolo[3,4-b][1,4,5]oxathiazepine-6-carboxamide]: the CC50 at 4 days in data set [1] is greater than 25 µM. Besides, the EC50 with HBV (setting [2]) was 0.056 µM.
Turning to `CC(C)[C@H]1COc2c(cn(C)c2C(=O)Nc2ccc(F)c(F)c2)S(=O)(=O)N1` [Compound 22, (3S)—N-(3,4-difluorophenyl)-3-isopropyl-7-methyl-1,1-dioxo-3,4-dihydro-2H-pyrrolo[3,4-b][1,4,5]oxathiazepine-6-carboxamide], the CC50 at 4 days in data set [1] is greater than 25 µM. For the same compound, in the data set with HBV (setting [2]), the EC50 amounted to 0.009 µM.
The matching figures for `C[C@H]1CCc2c(cn(C)c2C(=O)Nc2ccc(F)c(Cl)c2F)S(=O)(=O)N1` (single isomer, unassigned) [Compound 54, (3*S)—N-(3-chloro-2,4-difluoro-phenyl)-3,7-dimethyl-1,1-dioxo-2,3,4,5-tetrahydropyrrolo[3,4-f]thiazepine-6-carboxamide]: greater than 25 µM and 0.004 µM.
Turning to `Cn1cc2c(c1C(=O)Nc1ccc(F)c(C(F)F)c1)OC[C@H](C(O)C1CC1)NS2(=O)=O` (stereo partly drawn) [Compound 115a, (3R)-3-[cyclopropyl(hydroxy)methyl]-N-[3-(difluoromethyl)-4-fluoro-phenyl]-7-methyl-1,1-dioxo-3,4-dihydro-2H-pyrrolo[3,4-b][1,4,5]oxathiazepine-6-carboxamide], the CC50 at 4 days in data set [1] was greater than 25 µM. The EC50 in the data set with HBV (setting [2]) amounted to 0.008 µM.
In data set [1], `CC#CCC1COc2c(cn(C)c2C(=O)Nc2ccc(F)c(F)c2)S(=O)(=O)N1` (stereo not shown) [Compound 205, 3-but-2-ynyl-N-(3,4-difluorophenyl)-7-methyl-1,1-dioxo-3,4-dihydro-2H-pyrrolo[3,4-b][1,4,5]oxathiazepine-6-carboxamide] came in with a CC50 at 4 days greater than 25 µM. The EC50 in the data set on HBV (Hepatitis B virus, HepG2.117, 72 h, read-out: HBV-AVE-HepG2.117 EC50 (μM)) stood at 0.05 µM.
In data set [1], `Cn1cc2c(c1C(=O)Nc1ccc(F)c(F)c1)OC[C@@H](C1(O)CC1)NS2(=O)=O` [Compound 196, (3S)—N-(3,4-difluorophenyl)-3-(1-hydroxycyclopropyl)-7-methyl-1,1-dioxo-3,4-dihydro-2H-pyrrolo[3,4-b][1,4,5]oxathiazepine-6-carboxamide] showed a CC50 at 4 days greater than 25 µM. The EC50 in the data set with HBV (setting [2]) amounted to 0.065 µM.
`CCC1Cc2c(cn(C)c2C(=O)Nc2ccc(F)c(F)c2)S(=O)(=O)N1` (stereo not shown) [Compound 17, N-(3,4-difluorophenyl)-3-ethyl-6-methyl-1,1-dioxo-3,4-dihydro-2H-pyrrolo[3,4-e]thiazine-5-carboxamide] gave a half-maximal cytotoxic concentration (CC50) at 4 days in data set [1] greater than 25 µM. Moreover, the EC50 in the data set on HBV (setting [2]) was less than 0.098 µM.
`Cn1cc2c(c1C(=O)Nc1cc(F)c(F)c(F)c1)OC[C@H](C(O)C1CC1)NS2(=O)=O` (single isomer, unassigned) [Compound 208a, 3-[cyclopropyl(hydroxy)methyl]-7-methyl-1,1-dioxo-N-(3,4,5-trifluorophenyl)-3,4-dihydro-2H-pyrrolo[3,4-b][1,4,5]oxathiazepine-6-carboxamide] returned a CC50 at 4 days in data set [1] greater than 25 µM. Moreover, in the data set on HBV (setting [2]), the EC50 amounted to 0.008 µM.
In data set [1], `Cc1cc(CC2(C)COc3c(cn(C)c3C(=O)Nc3ccc(F)c(C#N)c3)S(=O)(=O)N2)no1` (single isomer, unassigned) [Compound 220a, N-(3-cyano-4-fluoro-phenyl)-3,7-dimethyl-3-[(5-methylisoxazol-3-yl)methyl]-1,1-dioxo-2,4-dihydropyrrolo[3,4-b][1,4,5]oxathiazepine-6-carboxamide] gave a CC50 at 4 days greater than 25 µM. The EC50 in the data set on HBV (HepG2.117 cell line (Tet-off), 3 days of treatment, intracellular HBV DNA quantified by realtime PCR, read-out: HBV-AVE-HepG2.117 EC50) came out at 0.007 µM.
On to `Cn1cc2c(c1C(=O)Nc1ccc(F)c(F)c1)OCC(CO)NS2(=O)=O` (stereo not shown) [Compound 83, N-(3,4-difluorophenyl)-3-(hydroxymethyl)-7-methyl-1,1-dioxo-3,4-dihydro-2H-pyrrolo[3,4-b][1,4,5]oxathiazepine-6-carboxamide], for which the CC50 at 4 days in data set [1] was greater than 25 µM. Also, the EC50 in the data set with HBV (setting [2]) was 0.058 µM.
On to `C[C@H](O)[C@H]1CCc2c(cn(C)c2C(=O)Nc2cc(F)c(F)c(F)c2)S(=O)(=O)N1` [Compound 104, (3R)-3-[(1S)-1-hydroxyethyl]-7-methyl-1,1-dioxo-N-(3,4,5-trifluorophenyl)-2,3,4,5-tetrahydropyrrolo[3,4-f]thiazepine-6-carboxamide], for which the CC50 at 4 days in data set [1] is greater than 25 µM. In addition, the EC50 in the data set on HBV (setting [2]) came out at 0.007 µM.
In turn, `Cn1cc2c(c1C(=O)Nc1ccc(F)c(C(F)F)c1)CCC1(COC1)NS2(=O)=O` [Compound 137, N-[3-(difluoromethyl)-4-fluoro-phenyl]-7-methyl-1,1-dioxo-spiro[4,5-dihydro-2H-pyrrolo[3,4-f]thiazepine-3,3′-oxetane]-6-carboxamide] yielded a CC50 at 4 days in data set [1] greater than 25 µM. Besides, the EC50 in the data set with HBV (setting [2]) was 0.006 µM.
The matching figures for `Cn1cc2c(c1C(=O)Nc1ccnc(C(F)(F)F)c1)CCC(C(F)(F)F)NS2(=O)=O` (racemic) [Compound 59, 7-methyl-1,1-dioxo-3-(trifluoromethyl)-N-[2-(trifluoromethyl)-4-pyridyl]-2,3,4,5-tetrahydropyrrolo[3,4-f]thiazepine-6-carboxamide]: greater than 25 µM and 0.24 µM.
The matching figures for `C[C@H]1CCc2c(cn(C)c2C(=O)Nc2ccc(F)c(C#N)c2)S(=O)(=O)N1` (single isomer, unassigned) [Compound 56, (3*S)—N-(3-cyano-4-fluoro-phenyl)-3,7-dimethyl-1,1-dioxo-2,3,4,5-tetrahydropyrrolo[3,4-f]thiazepine-6-carboxamide]: greater than 25 µM and 0.01 µM.
In the case of `Cc1cc(NC(=O)c2c3c(cn2C)S(=O)(=O)N[C@@H]([C@H](C)O)C=C3)ccc1F` [Compound 99, (3R)—N-(4-fluoro-3-methyl-phenyl)-3-[(1S)-1-hydroxyethyl]-7-methyl-1,1-dioxo-2,3-dihydropyrrolo[3,4-f]thiazepine-6-carboxamide], the CC50 at 4 days in data set [1] is greater than 25 µM. For the same compound, the EC50 in the data set on HBV (setting [2]) was found to be 0.004 µM.
In the case of `CC(C)N1CCc2c(cn(C)c2C(=O)Nc2ccc(F)c(F)c2)S1(=O)=O` [Compound 16, N-(3,4-difluorophenyl)-2-isopropyl-6-methyl-1,1-dioxo-3,4-dihydropyrrolo[3,4-e]thiazine-5-carboxamide], the CC50 at 4 days in data set [1] is greater than 25 µM. In addition, the EC50 in the data set on HBV (setting [2]) turned out to be 0.23 µM.
In data set [1], `CC(C)[C@H]1Oc2c(cn(C)c2C(=O)Nc2ccc(F)c(C#N)c2)S(=O)(=O)N[C@@H]1CO` [compound 239] returned a CC50 at 4 days greater than 25 µM. Also, the EC50 in the data set with HBV (setting [2]) was greater than 0.5 µM.
As for `COCOC(c1ccccn1)C1COc2c(cn(C)c2C(=O)Nc2ccc(F)c(F)c2)S(=O)(=O)N1` (stereo not shown) [Compound 129, N-(3,4-difluorophenyl)-3-[methoxymethoxy(2-pyridyl)methyl]-7-methyl-1,1-dioxo-3,4-dihydro-2H-pyrrolo[3,4-b][1,4,5]oxathiazepine-6-carboxamide], the 50% cytotoxic concentration (CC50) at 4 days in data set [1] is greater than 25 µM. Also, in the data set with HBV (setting [2]), the EC50 was determined as 0.012 µM.
In turn, `CN(C)CC1COc2c(cn(C)c2C(=O)Nc2ccc(F)c(F)c2)S(=O)(=O)N1` (stereo not shown) [Compound 110, N-(3,4-difluorophenyl)-3-(dimethylaminomethyl)-7-methyl-1,1-dioxo-3,4-dihydro-2H-pyrrolo[3,4-b][1,4,5]oxathiazepine-6-carboxamide] showed a CC50 at 4 days in data set [1] greater than 25 µM. Besides, in the data set on HBV (setting [2]), the EC50 is 0.2 µM.
`C[C@H](O)[C@H]1COc2c(cn(C)c2C(=O)Nc2ccc(F)c(C#N)c2)S(=O)(=O)N1` [Compound 65, (3R)—N-(3-cyano-4-fluoro-phenyl)-3-[(1S)-1-hydroxyethyl]-7-methyl-1,1-dioxo-3,4-dihydro-2H-pyrrolo[3,4-b][1,4,5]oxathiazepine-6-carboxamide]: the CC50 at 4 days in data set [1] was greater than 25 µM. The EC50 in the data set with HBV (setting [2]) came out at 0.007 µM.
For the compound `CC1CCC/C=C/Cc2c(cn(C)c2C(=O)Nc2ccc(F)c(F)c2)S(=O)(=O)N1` (stereo not shown) [Compound 2b, 8E-N-(3,4-difluorophenyl)-4,13-dimethyl-2,2-dioxo-2λ^6-thia-3,13-diazabicyclo[9.3.0]tetradeca-1(14),8,11-triene-12-carboxamide], the CC50 at 4 days in data set [1] was greater than 25 µM. Besides, the 50% effective concentration (EC50) with HBV (setting [2]) came to 0.49 µM.
In turn, `C[C@H](O)[C@H]1C=Cc2c(cn(C)c2C(=O)Nc2ccc(F)c(C#N)c2F)S(=O)(=O)N1` [Compound 178, (3R)—N-(3-cyano-2,4-difluoro-phenyl)-3-[(1S)-1-hydroxyethyl]-7-methyl-1,1-dioxo-2,3-dihydropyrrolo[3,4-f]thiazepine-6-carboxamide] displayed a CC50 at 4 days in data set [1] greater than 25 µM. Also, in the data set with HBV (setting [2]), the half-maximal effective concentration (EC50) amounted to 0.016 µM.
`C[C@@H]1Oc2c(cn(C)c2C(=O)Nc2ccc(F)c(F)c2)S(=O)(=O)N[C@@H]1C` [compound 230] displayed a CC50 at 4 days in data set [1] greater than 25 µM. Besides, the EC50 in the data set on HBV (setting [2]) is greater than 0.5 µM.
